Source: PubChem BioAssay (NCI)
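Grown in 96-well plates, cells were treated for 48 hours with each compound at five concentrations. Insufficient inhibition: endpoint recorded as highest concentration tested. GI50 is the concentration that inhibits growth by half. At the TGI there is no net growth.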

Experiments:
Test in all cases: NCI anticancer screen, dose series, 48 h
[1] = test system: A498 renal
[2] = test system: NCI-H522 lung
[3] = test system: HOP-92 NSCLC
[4] = test system: HS 578T breast
[5] = test system: OVCAR-5 ovarian
[6] = test system: CAKI-1 renal
[7] = test system: MDA-MB-435
[8] = test system: K-562 leukemia
[9] = test system: ACHN renal
[10] = test system: MOLT-4 leukemia
[11] = test system: U251 CNS
[12] = test system: IGROV1 ovarian
[13] = test system: SR leukemia
[14] = test system: RXF 393 renal
[15] = test system: A549 NSCLC
[16] = test system: PC-3 prostate
[17] = test system: UACC-62 melanoma
[18] = test system: HOP-62 NSCLC
[19] = test system: KM12 colon
[20] = test system: COLO 205 colon
[21] = test system: TK-10 renal
[22] = test system: T-47D breast
[23] = test system: BT-549 breast
[24] = test system: SK-MEL-28 melanoma
[25] = test system: NCI-H226 lung
[26] = test system: EKVX NSCLC
[27] = test system: SK-MEL-2 melanoma
[28] = test system: MALME-3M melanoma
[29] = test system: SK-OV-3 ovarian
[30] = test system: SN12C renal
[31] = test system: SNB-75 CNS
[32] = test system: UO-31 renal
[33] = test system: HT29 colon
[34] = test system: SF-295 CNS
[35] = test system: SW-620 colon
[36] = test system: SNB-19 CNS
[37] = test system: OVCAR-4 ovarian
[38] = test system: MDA-MB-231 breast
[39] = test system: DU-145 prostate
[40] = test system: HCT-15 colon
[41] = test system: OVCAR-3 ovarian
[42] = test system: 786-0 renal
[43] = test system: CCRF-CEM leukemia
[44] = test system: SF-268 CNS
[45] = test system: UACC-257 melanoma
[46] = test system: SF-539 CNS
[47] = test system: SK-MEL-5 melanoma
[48] = test system: RPMI-8226 leukemia

CNCc1cccc2c1OCCCCCCC(C)(O)CC(C)(C)S(=O)(=O)c1ccc(cc1)-c1cnc(N)c(n1)C(=O)N2 (centres undefined)
GI50 [1]: 3580 nM | TGI [1]: 16000 nM | GI50 [2]: 548 nM | TGI [2]: 2070 nM | GI50 [3]: 10200 nM | TGI [3]: 25900 nM | GI50 [4]: 381 nM | TGI [4]: 2910 nM | GI50 [5]: 2240 nM | TGI [5]: 10300 nM | GI50 [6]: 401 nM | TGI [6]: 2270 nM | GI50 [7]: 558 nM | TGI [7]: 2050 nM | GI50 [8]: 43.6 nM | TGI [8]: > 100000 nM | GI50 [9]: 30.6 nM | TGI [9]: 2560 nM | GI50 [10]: 15.1 nM | TGI [10]: 2570 nM | GI50 [11]: 366 nM | TGI [11]: 1940 nM | GI50 [12]: 433 nM | TGI [12]: 4480 nM | TGI [13]: 1190 nM | GI50 [14]: 47.7 nM | TGI [14]: 1370 nM | GI50 [15]: 123 nM | TGI [15]: 2460 nM | GI50 [16]: 910 nM | TGI [16]: 9170 nM | GI50 [17]: 1690 nM | TGI [17]: 3340 nM | GI50 [18]: 1320 nM | TGI [18]: 3750 nM | GI50 [19]: 1320 nM | TGI [19]: 2940 nM | GI50 [20]: 66.4 nM | TGI [20]: 1520 nM | GI50 [21]: 3290 nM | TGI [21]: 12200 nM | GI50 [22]: 6440 nM | TGI [22]: 32700 nM | GI50 [23]: 762 nM | TGI [23]: 8990 nM | GI50 [24]: 1240 nM | TGI [24]: 2540 nM | GI50 [25]: 1130 nM | TGI [25]: 6210 nM | GI50 [26]: 1870 nM | TGI [26]: 6970 nM | GI50 [27]: 1850 nM | TGI [27]: 4250 nM | GI50 [28]: 1210 nM | TGI [28]: 2580 nM | GI50 [29]: 1850 nM | TGI [29]: 18400 nM | GI50 [30]: 1170 nM | TGI [30]: 12700 nM | GI50 [31]: 453 nM | TGI [31]: 6460 nM | GI50 [32]: 224 nM | TGI [32]: 2210 nM | GI50 [33]: 51.5 nM | TGI [33]: 1890 nM | GI50 [34]: 1410 nM | TGI [34]: 2840 nM | GI50 [35]: 1360 nM | TGI [35]: 4170 nM | GI50 [36]: 1880 nM | TGI [36]: 5460 nM | GI50 [37]: 1130 nM | TGI [37]: 2720 nM | GI50 [38]: 953 nM | TGI [38]: 3140 nM | GI50 [39]: 603 nM | TGI [39]: 3240 nM | GI50 [40]: 92 nM | TGI [40]: 1310 nM | GI50 [41]: 277 nM | GI50 [42]: 27.9 nM | TGI [42]: 2100 nM | GI50 [43]: 13.8 nM | TGI [43]: > 20400 nM | GI50 [44]: 1270 nM | TGI [44]: 3570 nM | GI50 [45]: 1290 nM | TGI [45]: 2720 nM | GI50 [46]: 27.4 nM | TGI [46]: 2010 nM | GI50 [47]: 1300 nM | TGI [47]: 2570 nM | GI50 [48]: 637 nM | TGI [48]: 3000 nM
